SMILES: Cc1cc(Cl)cc(-n2cccn2)c1NC(=O)c1cc(C(F)(F)F)nn1-c1ccccc1Cl [Compound 16]
- melting point: 87 to 89 °C

Reference: patent US7375232B2, “Ortho-heterocyclic substituted aryl amides for controlling invertebrate pests” (E.I. du Pont de Nemours and Company, priority 2001, dated 2008)
